Measured values reported in patent US12357603B2, “Acyl sulfonamides for treating cancer” (Bayer Aktiengesellschaft, priority 2019, dated 2025).
pIC50: −log10 of the molar value.

Tests used:
[1] = target: Recombinant human His-tagged Kat6a protein (amino acids 194-810) (Homo sapiens (Human), UniProt Q92794); test: Kat6a activity assay (TR-FRET, acetylation of biotinylated Histone-H4-derived peptide); type: biochemical; conditions: 60 mins at 22° C., read-out: KAT6A-DPF/HAT domain IC50 [mol/l] (arithmetic mean)
Recombinant human His-tagged Kat6a protein (amino acids 194-810), sequence (Q92794 194-810): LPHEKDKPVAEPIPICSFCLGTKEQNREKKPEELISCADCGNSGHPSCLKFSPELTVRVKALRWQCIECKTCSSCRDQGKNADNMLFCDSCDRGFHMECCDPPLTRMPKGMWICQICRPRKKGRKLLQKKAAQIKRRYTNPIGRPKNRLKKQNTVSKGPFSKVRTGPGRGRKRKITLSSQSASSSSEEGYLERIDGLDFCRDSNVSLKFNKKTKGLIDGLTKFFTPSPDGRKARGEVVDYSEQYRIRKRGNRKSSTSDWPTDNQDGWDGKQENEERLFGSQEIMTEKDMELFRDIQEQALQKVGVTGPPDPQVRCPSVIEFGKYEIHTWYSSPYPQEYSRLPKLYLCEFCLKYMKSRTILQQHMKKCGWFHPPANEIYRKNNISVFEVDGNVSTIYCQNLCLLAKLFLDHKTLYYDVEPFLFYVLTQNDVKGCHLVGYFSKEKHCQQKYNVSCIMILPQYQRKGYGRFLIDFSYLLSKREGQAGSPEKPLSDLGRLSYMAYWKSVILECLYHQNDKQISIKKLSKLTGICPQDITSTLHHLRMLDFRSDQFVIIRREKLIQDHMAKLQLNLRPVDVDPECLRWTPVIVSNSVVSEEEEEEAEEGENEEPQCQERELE
Description: Kat6a inhibitory activities of the compounds described in the present invention were quantified using a Fluorescence Resonance Energy Transfer (TR-FRET) assay which measures acetylation of a synthetic, biotinylated Histone-H4-derived peptide by the enzyme.
Recombinant human His-tagged Kat6a protein (amino acids 194-810), was purified in-house from Baculovirus-infected insect cells (Sf9). Histone H4 peptide (amino acids 1-24, […]-VLRD-K(Btn)-amide), which was used as substrate, was synthesized by Biosyntan GmbH, Berlin, Germany. Acetyl Coenzyme A was purchased from Sigma-Aldrich (#A-2056).
Kat6a was incubated for 60 mins at 22° C. in the presence of different concentrations of test substances (0 μM, and within the range 0.01-20 μM) in assay buffer [25 mM Tris/HCl pH 8, 1 mM EGTA, 2.5 mM Glutathion, 0.02% Chicken Albumin, 0.05% Pluronic F127, 25 mM NaCl, 220 nM H4 peptide and 600 nM Acetyl Coenzym A].
The reaction was stopped by addition of Detection Solution (25 mM HEPES pH 7.5, 0.1% BSA, 22 nM SAXL665 (Cisbio #610SAXLE), 100 μM Anacardic Acid (Enzo #ALX-270-381), 1 nM Anti-Histone H4 (ACETYL K8) Antibody (ABCAM #AB15823) and 0.5 nM Anti-Rabbit IgG Eu (Perkin Elmer #AD0083).
The fluorescence emission at 620 nm and 665 nm after excitation at 330-350 nm was measured in a TR-FRET measuring instrument, for instance a Rubystar or a Pherastar (both from BMG Lab Technologies, Offenburg, Germany) or a Viewlux (Perkin-Elmer). The ratio of the emission at 665 nm and at […] was used as indicator of the amount of acetylated peptide.
The resulting data (ratio) were normalized, taking 0% inhibition as the mean value of control measurements where all reagents were included. In this case 50 nl DMSO were used instead of compounds. […] IC50 values were determined by regression analysis based on a 4 parameter equation (minimum, maximum, ICM, Hill; Y=Max+(Min−Max)/(1+(X/ICso) Hill) using the Screener Software (Genedata).
Table 5 depicts the IC50 values of selected examples in biochemical KAT6A and KAT6B3 assays.

[2] = tested on: ESR1 transcription (luciferase signal in MVLN cells); test: Repression of ESR1 transcription, luciferase reporter in MVLN cells; type: cell-based; conditions: Homo sapiens, MVLN, inhibition of luciferase signal in MVLN cells; arithmetic mean
Description: Repression of ESR1 Transcription Upon Treatment of Cells with Compounds
KAT6A controls transcription of the ESR1 gene in breast cancer cells. Compound treatment that interferes with this mechanism was quantified using MVLN cells. These cells constitutively express the ER and are stably transfected with the luciferase (LUC) reporter gene and the corresponding hormone responsive element derived from the 5′-flanking region of the Xenopus Vitellogenin A2 gene (Pons et al., 1990, Demirpense et al., 1993, Joyeux et al., 1993). The repressive effect on ERα transcription activity of a test chemical is directly related to the luciferase measured in the lysate of treated MVLN cells.
Each sample was prepared as duplicate and rim wells were excluded. For luciferase signal determination 100 μl of a 1:1 mixture of Steadylite plus (Perkin Elmer; 6016759) and assay medium was added after 24 h for 15 minutes and measured in Victor X3 (Perkin Elmer). To exclude any effects caused by cell loss during the treatment, cell density was determined using Alamar Blue (Invitrogen; DAL1100). Prior to the luciferase measurement 10 μl Alamar Blue were added to each well and the plates were incubated for 2 h in the incubator. Then fluorescence was measured with Victor X3 (Perkin Elmer) at 530 nm/590 nm.

[3] = tested on: MDA-MB-436 cells; test: Proliferation assay MDA-MB-436, negative control cell line (Alamar Blue, 144 h); type: cell-based; conditions: Homo sapiens, MDA-MB-436, 144 h, arithmetic mean
Description: (§1) Proliferation Assays for Compound Characterization
(§2) For compound characterization cell survival assays were routinely run in two cell lines. ZR-75-1 is a breast carcinoma cell line containing a focal KAT6A amplification and high KAT6A protein expression. Proliferation of this cell line is inhibited upon treatment with KAT6A inhibitors. As a negative control cell line MDA-MB-436 were used. These cells carry a […] deletion of the KAT6A gene, have a low KAT6A protein expression and are not growth inhibited upon treatment with KAT6A inhibitors.
(§3) For measurements cell lines were plated at the below indicated concentration per […] in 96-well plates in a humidified incubator at 37° C. and 5% CO2.
MDA-MB-436 (CLS, 300278; breast adenocarcinoma); 3000 cells per well; culture medium: DMEM/Ham's F12 (Biochrom #FG 4815) medium containing 2.5% FBS (Biochrom #S0615).
(§4) 24 hours later, cells were treated with compounds (stock solution, 10 mM in DMSO) using the HP D300 Digital Dispenser in a concentration range of 2.0×10E-5 M to 2.0×10E-9 M in a single-dot curve with 9 dilutions and a DMSO concentration of 0.2%. Each sample was prepared as triplicate and rim wells were excluded. Plates were incubated at 37° C. and 5% CO2 for 144 h. Cell viability was measured by adding 10 μL of Alamar Blue Reagent (Invitrogen #DAL 1100) and plates were incubated for 2 h at 37° C. and 5% CO2. Fluorescence was measured at 590 nm wavelength with a Tecan Spark or Victor X3 MTP-Reader (PerkinElmer).

[4] = tested on: ZR-75-1 cells; test: Proliferation assay ZR-75-1 (Alamar Blue, 144 h); type: cell-based; conditions: Homo sapiens, ZR-75-1, 144 h, arithmetic mean, read-out: ZR75-1 proliferation assay, EC50 [M] (arithmetic mean)
Description: as §1, §2, §3
ZR-75-1 (ATCC, CRL-1500; breast carcinoma); 3000 cells per well; culture medium: RPMI 1640 (Biochrom #FG 1215) medium containing 2.5% FBS (Biochrom #S0615).
as §4

SMILES | pIC50 [1] | IC50 [2] [nM] | EC50 [3] [nM] | EC50 [4] [M]
CC1CCCN1c1ccc2cc(C(=O)NS(=O)(=O)c3ccccc3-c3ccccc3)oc2c1 (racemic) [Example 44, N-([1,1′-Biphenyl]-2-sulfonyl)-6-[2-methylpyrrolidin-1-yl]-1-benzofuran-2-carboxamide (rac)] | 5.50 | > 20000 | > 20000 | > 2e-05
CN(C)c1ccc2cc(C(=O)NS(=O)(=O)c3ccc(Cl)cc3Cl)oc2c1 [Example 27, N-(2,4-Dichlorobenzene-1-sulfonyl)-6-(dimethylamino)-1-benzofuran-2-carboxamide] | 6.87 | 1750 | > 20000 | 1.73e-06
CN1Cc2cccc(S(=O)(=O)NC(=O)c3cc4ccc(N(C)C)cc4o3)c2C1=O [Example 95, 6-(Dimethylamino)-N-(2-methyl-3-oxo-2,3-dihydro-1H-isoindole-4-sulfonyl)-1-benzofuran-2-carboxamide] | 6.82 | 488 | > 20000 | 7.18e-07
CN(C)c1ccc2cc(C(=O)NS(=O)(=O)c3ccccc3OC(F)(F)C(F)(F)F)oc2c1 [Example 96, 6-(Dimethylamino)-N-[2-(pentafluoroethoxy)benzene-1-sulfonyl]-1-benzofuran-2-carboxamide] | 6.59 | 556 | > 20000 | 1e-06
CN(C)c1ccc2cc(C(=O)NS(=O)(=O)c3c(Cl)cccc3C(F)(F)F)oc2c1 [Example 97, N-[2-Chloro-6-(trifluoromethyl)benzene-1-sulfonyl]-6-(dimethylamino)-1-benzofuran-2-carboxamide] | 6.33 | 571 | > 20000 | 6.15e-07
CN(C)c1ccc2cc(C(=O)NS(=O)(=O)c3ccccc3)oc2c1 [Example 99, N-(benzenesulfonyl)-6-(dimethylamino)-1-benzofuran-2-carboxamide] | 6.19 | 672 | > 20000 | 6.63e-07
Cc1cc(Cn2cccn2)cc(S(=O)(=O)NC(=O)c2cc3ccc(N(C)C)cc3o2)c1C [Example 100] | 6.75 | 974 | > 20000 | 1.12e-06
COc1cc(S(=O)(=O)NC(=O)c2cc3ccc(N(C)C)cc3o2)cc(Cn2cccn2)c1OC [Example 103, N-{3,4-Dimethoxy-5-[(1H-pyrazol-1-yl)methyl]benzene-1-sulfonyl}-6-(dimethylamino)-1-benzofuran-2-carboxamide] | 5.92 | 2950 | > 20000 | 2.6e-06
Cc1cccnc1CS(=O)(=O)NC(=O)c1cc2ccc(N(C)C)cc2o1 [Example 105, 6-(Dimethylamino)-N-[(3-methylpyridin-2-yl)methanesulfonyl]-1-benzofuran-2-carboxamide] | 5.71 | 11600 | > 20000 | 3.72e-06
Cc1ccc2cccc(S(=O)(=O)NC(=O)c3cc4c(F)cc(N(C)C)cc4o3)c2n1 [Example 108, 6-(Dimethylamino)-4-fluoro-N-(2-methylquinoline-8-sulfonyl)-1-benzofuran-2-carboxamide] | 8.34 | 9.1 | > 18600 | 8.07e-08
CC(C)Oc1ccccc1S(=O)(=O)NC(=O)c1cc2c(F)cc(N(C)C)cc2o1 [Example 109, 6-(Dimethylamino)-4-fluoro-N-{2-[(propan-2-yl)oxy]benzene-1-sulfonyl}-1-benzofuran-2-carboxamide] | 8.15 | 9.67 | > 20000 | 3.7e-08
CCOc1ccc(Br)cc1S(=O)(=O)NC(=O)c1cc2ccc(N(C)CCOC)cc2o1 [Example 213, N-(5-Bromo-2-ethoxybenzene-1-sulfonyl)-6-[(2-methoxyethyl)(methyl)amino]-1-benzofuran-2-carboxamide] | – | 9880 | > 20000 | 8.48e-06

The remaining compounds from weak to strong by IC50 [2], led by results:

pIC50 [1] | IC50 [2] [nM] | EC50 [3] [nM] | SMILES | EC50 [4] [M]
– | 14600 | > 20000 | CC(C)Oc1ccccc1S(=O)(=O)NC(=O)c1cc2cc(Br)c(N(C)C)cc2o1 [Example 208, 5-Bromo-6-(dimethylamino)-N-{2-[(propan-2-yl)oxy]benzene-1-sulfonyl}-1-benzofuran-2-carboxamide] | 1.83e-05
5.96 | 3190 | > 20000 | CCc1ccccc1S(=O)(=O)NC(=O)c1cc2ccc(N(C)C)cc2o1 [Example 104, 6-(Dimethylamino)-N-(2-ethylbenzene-1-sulfonyl)-1-benzofuran-2-carboxamide] | 3e-06
6.31 | 1470 | > 20000 | CCc1ccc(Cn2cccn2)cc1S(=O)(=O)NC(=O)c1cc2ccc(N(C)C)cc2o1 [Example 102, 6-(Dimethylamino)-N-{2-ethyl-5-[(1H-pyrazol-1-yl)methyl]benzene-1-sulfonyl}-1-benzofuran-2-carboxamide] | 1.95e-06
7.28 | 555 | > 20000 | CN(C)c1ccc2cc(C(=O)NS(=O)(=O)c3ccc(Br)cc3OC(F)(F)F)oc2c1 [Example 118, N-[4-Bromo-2-(trifluoromethoxy)benzene-1-sulfonyl]-6-(dimethylamino)-1-benzofuran-2-carboxamide] | 9.57e-07
7.24 | 68.6 | > 20000 | CC(Oc1ccccc1S(=O)(=O)NC(=O)c1cc2ccc(N(C)C)cc2o1)C(F)(F)F (racemic) [Example 135, 6-(Dimethylamino)-N-(2-[-1,1,1-trifluoropropan-2-yl)oxy]benzene-1-sulfonyl)-1-benzofuran-2-carboxamide (rac)] | 1.46e-07
8.36 | 22.1 | > 20000 | CCOc1ccc(C(C)CC)cc1S(=O)(=O)NC(=O)c1cc2ccc(N(C)C)cc2o1 (racemic) [Example 170, 6-(Dimethylamino)-N-(2-ethoxy-5-sec-butyl-phenyl)sulfonyl-benzofuran-2-carboxamide (rac)] | 3.02e-08
